Reference: patent publication US4996225A, “Tri-phenyl alkane derivatives and their oestrogenic, anti-oestrogenic and progestanic uses” (Farmos Group Ltd., priority 1982, dated 1991)
Entries after “also recorded” stand apart in the source; their conditions may differ.

Legend:
immature mouse uterus [1] = assay: progestanic effect, uterus weight of immature mice (alone or with medroxyprogesterone acetate); format: in vivo; design: reduction in the weight of a mouse uterus, given alone / reduction in the weight of uterus with medroxyprogesterone / reduction in the weights of mice uterus, given alone: concentration or dose not given beside the values; details: for effect with medroxyprogesterone (in words) / reduction in the weights of mice uterus with medroxyprogesterone, compared to control: with medroxyprogesterone 0.06 mg/kg; for reduction in the weights of mice uterus, given alone: Table 2A
[2] = tested on: MCF-7 cell line (human mammary adenocarcinoma); assay: anti-tumour effect in vitro, growth of MCF-7 cell line (bioluminescence assay, intracellular ATP); format: cell-based; details: read-out: Antitumour effect against MCF-7 cell line (IC50 = concentration of compound where 50% inhibition of cell growth could be seen)
Method: The anti-tumour effect was studied in vitro as follows:
The amount of living cells after 4 h, 24 h and 48 h incubations were determined by bioluminescence assay (intracellular ATP determination).
inhibition of cell growth could be seen.

oestrogen receptors = biological target: T1, oestrogen receptors (Rattus norvegicus, UniProt P06211); assay: affinity for oestrogen receptors, competition with 3H-17-β-estradiol in rat uterus cytosol (dextran-charcoal method); format: binding; details: read-out: Estrogen receptor affinity (concentration of compound where 50% competition (inhibition) with 3H-estradiol occurred)
T1 construct: rat uterus cytosol preparation; from tissue; host or cells: rat uterus cytosol
T1 sequence (P06211 1-600): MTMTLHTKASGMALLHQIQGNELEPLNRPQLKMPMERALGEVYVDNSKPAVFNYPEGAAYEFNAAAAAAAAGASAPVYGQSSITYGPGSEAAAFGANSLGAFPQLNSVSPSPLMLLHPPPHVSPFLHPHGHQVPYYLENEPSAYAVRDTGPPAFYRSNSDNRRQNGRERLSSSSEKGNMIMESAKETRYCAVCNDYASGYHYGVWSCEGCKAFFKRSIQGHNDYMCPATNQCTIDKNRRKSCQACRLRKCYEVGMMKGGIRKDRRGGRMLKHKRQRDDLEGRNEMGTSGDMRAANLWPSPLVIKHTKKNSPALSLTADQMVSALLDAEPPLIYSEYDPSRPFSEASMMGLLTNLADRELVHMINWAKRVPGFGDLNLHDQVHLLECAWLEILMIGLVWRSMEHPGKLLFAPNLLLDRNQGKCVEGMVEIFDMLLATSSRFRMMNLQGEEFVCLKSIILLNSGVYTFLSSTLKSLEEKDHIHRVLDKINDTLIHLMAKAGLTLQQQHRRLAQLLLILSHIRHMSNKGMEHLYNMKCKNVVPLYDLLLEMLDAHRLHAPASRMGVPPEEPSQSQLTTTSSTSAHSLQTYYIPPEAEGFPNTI
Method: The affinity of the new compounds for oestrogen receptors was determined by the ability to compete with ^3 H-labelled 17-β-estradiol in rat uterus cytosol preparation. After incubation, receptor-bound and receptor-unbound ligands were separated by a known dextrancharcoal method.

[3] = tested on: DMBA-induced rat mammary adenocarcinomas; assay: antitumour effect in vivo against DMBA-induced rat mammary adenocarcinoma
Method: The anti-tumour effect was investigated in vivo against DMBA-induced rat mammary adenocarcinomas, transplantable mammary and ovarial adenocarcinoma and transplantable prostatic squamous cell carcinoma by the following methods:
Mammary adenocarcinomas were induced by DMBA in 35-40 days old female rats. […] Tumour size and numbers of tumours were evaluated twice a week. Tumour sizes in the control group, treated with solvent, were compared with the test groups.
The size refers to the width×height of the tumour. The growth rate is a difference between sizes compared with that of the first day of the treatment.

[4] = tested on: estradiol induced weight increase in immature mouse uterus; assay: antiestrogenic effect, inhibition of oestrogen-induced uterus weight increase in immature mice; format: in vivo; details: for anti-estrogenic effect (in words): immature mouse uterus; for effect with estradiol (in words) / reduction in the weights of mice uterus, with estradiol: with estradiol 0.05 mg/kg; for inhibition of estradiol-induced uterus weight increase: estradiol 5 μg/kg
Method: (§1) The oestrogen-antiestrogen (progesterone) effect of the new compounds in vivo was determined as follows: (1) The oestrogenic properties were determined by administering the new compounds, suspended in sesame oil, subcutaneously to 21 days old immature mice on three consecutive days. The mice were killed on the fourth day and the uterus was weighed. […] The weight correlates with the oestrogenic effect of the compound tested. […] In this case, the ability of the molecules to inhibit oestrogen-induced uterus weight increase was also investigated.

immature mouse uterus [5] = assay: oestrogenic effect, uterus weight of immature mice; format: in vivo; details: for estrogenic effect: less than that of estradiol 0.05 mg/kg / increase in uterus weight: 5 mg/kg; for estrogenic effect (in words): immature mice, s.c., three days
Method: as §1

Compound | effect with medroxyprogesterone (in words) (immature mouse uterus [1]) | reduction in the weights of mice uterus with medroxyprogesterone, compared to control (immature mouse uterus [1]) | IC50 [2] | IC50 (oestrogen receptors) | anti-estrogenic effect (in words) [4] | effect with estradiol (in words) [4] | reduction in the weights of mice uterus, with estradiol [4] | estrogenic effect: less than that of estradiol 0.05 mg/kg (immature mouse uterus [5]) | estrogenic effect (in words) (immature mouse uterus [5]) | growth rate of the tumours (in words) ([3]; rat, in vivo) | inhibition of estradiol-induced uterus weight increase ([4]; 5 mg/kg) | increase in uterus weight (immature mouse uterus [5]) | also measured
CN(C)CCOc1ccc(/C(=C(/CCBr)c2ccccc2)c2ccccc2)cc1 [Compound 13, 4-bromo-1,2-diphenyl-1-[4-[2-(N,N-dimethylamino)ethoxy]phenyl]-1-butene] | weak | 14% | 1 to 5 µM | 0.1 to 1 µM | possessed anti-estrogenic effects | anti- | 25% | about 50% | could be seen only at the higher concentrations investigated | – | – | – | antitumour effect against DMBA-induced mammary cancer (in words) ([3]; compared with compound 7): Antitumour effect less than that of compound 7; inhibition of estradiol induced effect in mouse uterus ([4]; 5 mg/kg): 25%; effect given alone: estrogenic (in words) (immature mouse uterus [5]): estrogenic; increase in the weights of mice uterus, given alone (immature mouse uterus [5]): 50%
CN(C)CCOc1ccc(/C(=C(/CCF)c2ccccc2)c2ccccc2)cc1 [Compound 21, 4-fluoro-1,2-diphenyl-1-[4-[2-(N,N-dimethylamino)ethoxy]phenyl]-1-butene] | – | – | 5 to 10 µM | 0.1 to 1 µM | – | – | – | – | – | only the growth rate of the tumours was reduced | 68-100% | ≤ 55% | –
CNCCOc1ccc(/C(=C(/CCCl)c2ccccc2)c2ccccc2)cc1 [Compound 23, 4-chloro-1,2-diphenyl-1-[4-[2-(N-methylamino)ethoxy]phenyl]-1-butene] | – | – | 1 to 5 µM | 1 to 10 µM | – | – | – | – | – | only the growth rate of the tumours was reduced | 68-100% | ≤ 55% | –
Oc1ccc([C@@H](c2ccccc2)[C@@H](CCCl)c2ccccc2)cc1 (relative stereo) [Compound 14, 4-chloro-1,2-diphenyl-1-(4-hydroxyphenyl)-butane] | – | – | 5 to 10 µM | 0.1 to 1 µM | possessed anti-estrogenic effects | anti- | 20% | about 50% | could be seen only at the higher concentrations investigated | – | – | – | inhibition of estradiol induced effect in mouse uterus ([4]; 5 mg/kg): 20%; effect given alone: estrogenic (in words) (immature mouse uterus [5]): estrogenic; increase in the weights of mice uterus, given alone (immature mouse uterus [5]): 50%
CN(C)CCOc1ccc(/C(=C(/CCI)c2ccccc2)c2ccccc2)cc1 [Compound 22, 4-iodo-1,2-diphenyl-1-[4-[2-(N,N-dimethylamino)ethoxy]phenyl]-1-butene] | – | – | 1 to 5 µM | 0.1 to 1 µM | – | – | – | – | – | the growth rate of the tumours decreased | less than 67% | ≤ 70% | amount of new tumours (in words) ([3]; rat, in vivo): the amount of new tumours decreased
Oc1ccc([C@@]2(c3ccccc3)OCCC[C@@H]2c2ccccc2)cc1 (relative stereo) [Compound 5, 2,3-diphenyl-2-(4-hydroxyphenyl)tetrahydropyran] | no inhibition | 34% | 1 to 5 µM | 0.1 to 1 µM | no antiestrogenic effect | no synergism | – | 41% | could be seen only at the higher concentrations investigated | – | – | – | decrease of weight of mouse uterus (immature mouse uterus [1]; 0.05 mg/kg): 34%; effect given alone: progestanic (in words) (immature mouse uterus [1]; given alone): progestanic; reduction in the weights of mice uterus, given alone (immature mouse uterus [1]; given alone): 34%; progestanic effect (in words) (immature mouse uterus [1]; immature mouse uterus): due to its progestanic effect; interaction with medroxyprogesterone (in words) (immature mouse uterus [1]; with medroxyprogesterone): No inhibition of medroxyprogesterone; estrogenic effect with increased doses (in words) (immature mouse uterus [5]; increased doses, effect overcame that of medroxyprogesterone): a weak estrogenic effect could be seen; also recorded: A slight increase in the weight of uterus
CN(C)CCOc1ccc(/C(=C(/CCO)c2ccccc2)c2ccccc2)cc1 [Compound 4, 1,2-diphenyl-1-[4-[2-(N,N-dimethylamino)-ethoxy]-phenyl]-1-buten-4-ol] | weak | 17% | 1 to 5 µM | 1 to 10 µM | possessed anti-estrogenic effects | anti- | 21% | – | – | – | – | – | effect given alone: progestanic (in words) (immature mouse uterus [1]; given alone): progestanic; reduction in the weight of a mouse uterus, given alone (immature mouse uterus [1]; given alone): 38%; reduction in the weights of mice uterus, given alone (immature mouse uterus [1]; given alone): 31%; interaction with medroxyprogesterone (in words) (immature mouse uterus [1]; with medroxyprogesterone): slight inhibition; reduction in the weight of uterus with medroxyprogesterone (immature mouse uterus [1]; with medroxyprogesterone): 17%; growth rate of tumours compared to controls ([3]; 10 mg/kg): one eighth; inhibition of estradiol induced effect in mouse uterus ([4]; 0.5 mg/kg): 12%; effect given alone: antiestrogenic (in words) ([4]; given alone): anti-; estrogenic effect of their own (in words) (immature mouse uterus [5]; up to 5 mg/kg): no estrogenic effect of their own
